Experimental findings from PMC3161736 (2011) are described below.

The structures appear in SMILES notation.

The subject of this experiment is TATA box-containing oligonucleotide (DNA, duplex) GAAGGGGGGCTATAAAAGGGGGTG/CACCCCCTTTTATAGCCCCCCTTC
In words: EMSA, inhibition of TBP binding to TATA box probe. To be noted: LightShift chemiluminescent EMSA; probe preincubated with BBR; TBP from PC12 nuclear extract displaced; apparent. A general note: A gel shift assay detects complexes by their altered migration in electrophoresis.

On to `COc1ccc2cc3[n+](cc2c1OC)CCc1cc2c(cc1-3)OCO2`, for which the IC50 worked out at 0.3985 µmol.
